# How the values were obtained:
# FGFR2-Fc = target: T1, FGFR2-Fc (Homo sapiens, UniProt P21802); assay: Enzyme linked FGF2 binding assay with FGFR2-Fc; conditions: concentrations of 1 to 1000 nM, FGF-2 + heparin
# T1 construct: consisted of human extracellular domain FGFR2α (Inc) and Fc-fragment of human IgG1
# Method: Non-radioactive enzyme linked FGF2 binding assay was performed in order to assess if RPT835 influences on binding of FGFR2 and ligand (FGF-2). Recombinant chimeric protein FGFR2-Fc, which consisted of human extracellular domain FGFR2α (Inc) and Fc-fragment of human IgG1 was used in the binding assay of FGF-2. FGFR2α contained all the 3 immunoglobulin-like domains and represented domain IIIc FGFR2 with high affinity to FGF-2. A 96-cavity plate tablet was covered with FGFR2-Fc protein, and then the following was added into the cavities:
# 3) inhibitor RPT835 in various concentrations+FGF-2+heparin
# 4) a part of the cavities remained without stimulators (FGF-2+heparin) and RPT835 (negative control).
# After incubation, enzyme-linked immunoassay was carried out using the corresponding antibodies and subsequent determination of OD650 (optic density with wavelength of 650 nm).
# [1] = tested on: p44/42(MAPK), Akt, mTOR, p70S6; assay: Phosphorylation of intracellular kinases in KATO III cells; format: cell-based; conditions: FGF-2 and heparin
# Method: In order to access the effect of inhibitor RPT835, characterized in his invention by formula II, on phosphorylation of the listed kinases, stomach cancer cells KATO III, which express FGFR2, was used. FGF-2 in concentration 1 mg/ml and heparin 10 mg/ml was added to the cells for stimulation of FGFR. RPT835 was added in various concentrations. Part of the cells left without addition of the inhibitor, and a part of the cells—without addition of both the inhibitor, and stimulating agents (control groups).
# In order to assess the phosphorylation level, 2 standard methods were used: • Western-blotting using manual work. • Automatic capillary electrophoresis and immune-detection using automatic system Wes™ (ProteinSimple; SantaClara, Calif.).
# SUM-52 cells = assay: Proliferation of SUM-52 cells expressing FGFR2 IIIb; format: cell-based, human; conditions: SUM-52 (FGFR2 IIIb), RPT835 1 micron, FGF-1 100 ng/ml
# Method: The research assessed the influence of inhibitor RPT835 determined by formula II of this invention, intervention with interaction of FGFR2 represented by two most frequent isoforms IIIb and IIIc with FRS2. For this, human cell line of embryonal osteoblasts (hFOB) expressing only FGFR2 […], and human cell line of breast cancer SUM-52 expressing FGFR2 IIIb (all main versions of isoform—C1, C2, C3) were chosen.
# Cells were divided into the groups: • 1a) hFOB • 1b) hFOB, stimulating FGF-1 (100 ng/ml) • 1c) hFOB, cultivation with RPT835 (1 micron) and stimulation of FGF-1 (100 ng/ml) • 2a) SUM-52 • 2b) SUM-52, stimulation of FGF-1 (100 ng/ml) • 2c) SUM-52, cultivation with RPT835 (1 micron) and stimulation of FGF-1 (100 ng/ml)
# [2] = tested on: triple negative breast cancer HS578T; assay: Tumor growth of HS578T xenograft in nude mice; format: in vivo; conditions: for Slowdown of tumor growth: 30 mg/kg daily; for average size of tumor: 30 mg/kg daily through a stomach tube
# Method: Females of immunodeficient mice (nude) at the age of 8 weeks were administered 2×10^6 tumor cells of human cell lines with various expression of FGFR2: • cell line of triple-negative breast cancer SUM52PE strongly expressing FGFR2 (purchased from Asterand, Inc. (Detroit, Mich.) • cell line of triple negative breast cancer HS578T weakly expressing FGFR2 (purchased from ATCC (CRL-125) • cell line of non-small cell lung cancer NCI-H226 not expressing FGFR2 (purchased from ATCC (CRL-5826)
# After the tumor growth got established (1 mm^3), the mice were divided into control and treatment groups in accordance with the tumor type.
# Control group 2 (N=10): HS578T, administration of water through a stomach tube, daily.
# Treatment group 2 (N=10): HS578T, administration of inhibitor RPT835 through a stomach tube in a dose of 30 mg/kg, daily.
# Size of tumor and weight of animals were measured every 3 day. The mice underwent euthanasia when the tumor reached the size of 2,000 mm^3 or on the 60 day of the experiment.
# FRS2α = target: T2, FRS2α (Homo sapiens, UniProt Q8WU20); assay: FRS2α phosphorylation in breast cancer cells MDA MB 134 (FGFR1 system); format: cell-based; set-up: endogenous in cells; host or cells: MDA MB 134; conditions: MDA MB 134 cells
# T2 sequence (Q8WU20 1-508): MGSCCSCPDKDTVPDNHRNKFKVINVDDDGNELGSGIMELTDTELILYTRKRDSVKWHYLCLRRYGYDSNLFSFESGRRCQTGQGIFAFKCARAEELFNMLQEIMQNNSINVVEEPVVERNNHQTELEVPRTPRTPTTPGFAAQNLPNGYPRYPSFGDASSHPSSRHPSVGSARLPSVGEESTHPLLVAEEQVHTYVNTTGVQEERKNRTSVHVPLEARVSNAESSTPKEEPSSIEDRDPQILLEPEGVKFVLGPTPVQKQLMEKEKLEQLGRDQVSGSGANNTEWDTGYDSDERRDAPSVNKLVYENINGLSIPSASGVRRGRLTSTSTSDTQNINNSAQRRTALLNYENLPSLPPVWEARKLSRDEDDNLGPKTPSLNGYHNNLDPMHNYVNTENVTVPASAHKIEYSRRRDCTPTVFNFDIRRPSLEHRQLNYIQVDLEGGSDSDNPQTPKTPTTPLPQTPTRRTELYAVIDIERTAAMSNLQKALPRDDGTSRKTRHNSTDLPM
# From the text: The purpose of this research was assessment of specific action of inhibitor RPT835 specified in this invention with formula II, on interaction of […] and FRS2 and assessment of influence on interaction of other types of FGFR and FRS2. For the experiment, 2 cell lines were selected: • stomach cancer KATO III, expressing FGFR2, and • breast cancer MDA MB 134, expressing FGFR1.
# The research procedure was the same as in the previous examples: the cells were cultivated in presence of RPT835 followed by stimulation with FGF-2 and heparin. The other part of the cells was cultivated in presence of RPT835. Phosphorylation of FGFR1 (in breast cancer cells) and FGFR2 (in stomach cancer cells), and also FRS2a (in the both cell lines) and some intracellular kinases (in breast cancer cells) was assessed using manual and automated Western blotting.
# T1 sequence (P21802 22-377 limits assumed): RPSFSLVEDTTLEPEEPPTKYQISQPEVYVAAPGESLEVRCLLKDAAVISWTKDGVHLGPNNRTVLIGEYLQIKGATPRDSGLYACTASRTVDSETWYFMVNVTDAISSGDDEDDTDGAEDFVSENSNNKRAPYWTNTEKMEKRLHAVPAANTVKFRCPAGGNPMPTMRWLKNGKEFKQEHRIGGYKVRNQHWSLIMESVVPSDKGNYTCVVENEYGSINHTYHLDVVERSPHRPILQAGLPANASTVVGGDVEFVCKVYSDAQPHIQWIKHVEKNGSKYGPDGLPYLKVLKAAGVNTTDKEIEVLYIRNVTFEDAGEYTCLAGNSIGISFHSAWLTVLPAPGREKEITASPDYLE
smiles,measurement,setting,value
"Cc1cc([N+](=O)[O-])c(NS(=O)(=O)c2cccc(C(=O)O)c2)cc1-c1cccnc1 [RPT835, 3-(N-(4-methyl-2-nitro-5-(pyridin-3-yl)phenyl)sulfamoyl)benzoic acid]",binding of FGF-2 and FGFR2-Fc,FGFR2-Fc,did not influence on binding of ligand with the receptor
same,"activity (phosphorylation) of p44/42(MAPK), Akt, mTOR, p70S6 compared to cells stimulated only with FGF-2",[1],did not change
same,proliferation of cells,SUM-52 cells,reliably suppressed proliferation
same,Slowdown of tumor growth,[2]; 31st day,33.2%
same,average size of tumor,[2]; 31st day,703±89.1 mm3
same,Slowdown of tumor growth,[2]; 40th day,30.6%
same,average size of tumor,"[2]; 40th day, P=0.01","1,104±162.2 mm3"
same,phosphorylation of FRS2α (system FGFR1),FRS2α,did not have influence

# Reference: patent US9957236B2, “Selective inhibitors interfering with fibroblast growth factor receptor and FRS2 interaction for the prevention and treatment of cancer and other diseases” (LIMITED LIABILITY COMPANY “RUSSIAN PHARMACEUTICAL …, priority 2014, dated 2018)
